The text below walks through data of patent US20090281143A1, “Dose Reduction of a Cannabinoid CB1 Receptor Antagonist in the Treatment of Overweight or Obesity” (N-Gene Research Laboratories, Inc., priority 2007, published 2009).

This assay in a line: Inhibition of body weight gain in high fat diet exposed mice. The conditions noted are these: for weight gain in relation to that of the control group fed with standard laboratory chow: excess over chow control.

Protocol: OF-1 female mice weighing about 18-20 g at the beginning of the experiment were used in the study. […] The high fat diet consisted of palatable food that contained 50% fat. The group on standard laboratory chow was also treated with vehicle. Treatment was performed with all of the drugs, orally, at 5 ppm. The weight of the animals was measured weekly.

Turning to `Cc1c(C(=O)NN2CCCCC2)nn(-c2ccc(Cl)cc2Cl)c1-c1ccc(Cl)cc1` [rimonabant, N-piperidino-5-(4-chlorophenyl)-1-(2,4-dichlorophenyl)-4-methylpyrazole-3-carboxamide], the “Body weight gain in g after 2 weeks” value is, setting by setting: (rimonabant 2 mg/kg daily oral, after 2 weeks) 10.6 g; (rimonabant 10 mg/kg daily oral, after 2 weeks) 10.2 g. Also, the “Body weight gain in g after 3 weeks” value (rimonabant 2 mg/kg daily oral, after 3 weeks) stood at 14.1 g and the “Body weight gain in g after 3 weeks” value (rimonabant 10 mg/kg daily oral, after 3 weeks) is recorded as 13.0 g. For the same compound, the “weight gain in relation to that of the control group fed with standard laboratory chow” value (“weight gain in relation to that” for short) (rimonabant 2 mg/kg, after 2 weeks) came to 22%; the “weight gain in relation to that” value (rimonabant 2 mg/kg, after 3 weeks) came to 33%; the “weight gain in relation to that” value (rimonabant 10 mg/kg, after 2 weeks) was 17%; the “weight gain in relation to that” value (rimonabant 10 mg/kg, after 3 weeks) came to 22.6%.
